# Measurements published in patent US9540391B2, “Isomannide derivatives as inhibitors of soluble epoxide hydrolase” (SANOFI, priority 2013, dated 2017).
# Target: T1, recombinant sEH (Homo sapiens, UniProt P34913)
# T1 construct: made in house; host or cells: Sf9 insect cells
# T1 sequence (P34913 1-555): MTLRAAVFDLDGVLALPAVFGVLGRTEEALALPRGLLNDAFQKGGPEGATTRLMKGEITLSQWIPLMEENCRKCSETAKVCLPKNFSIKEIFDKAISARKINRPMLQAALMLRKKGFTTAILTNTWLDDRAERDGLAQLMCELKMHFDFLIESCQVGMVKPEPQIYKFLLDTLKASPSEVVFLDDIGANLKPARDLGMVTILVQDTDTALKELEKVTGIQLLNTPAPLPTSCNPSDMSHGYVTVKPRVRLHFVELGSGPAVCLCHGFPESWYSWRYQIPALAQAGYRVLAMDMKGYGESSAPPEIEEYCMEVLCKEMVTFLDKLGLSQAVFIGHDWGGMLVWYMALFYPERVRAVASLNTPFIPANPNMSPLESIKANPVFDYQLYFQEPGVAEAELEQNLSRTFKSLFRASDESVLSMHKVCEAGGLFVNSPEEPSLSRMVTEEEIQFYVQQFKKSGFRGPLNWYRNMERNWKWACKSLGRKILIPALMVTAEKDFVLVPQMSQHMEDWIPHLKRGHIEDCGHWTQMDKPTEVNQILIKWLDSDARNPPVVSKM
# Assay: biochemical screening assay for inhibition of soluble epoxide hydrolase (fluorometric, Phome substrate)
# How it was run: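 Human sEH from Sf9 cells (2 nM final) was pre-incubated 15 min at 30 °C with compound (0.0001–10 μM), then reacted 60 min at 30 °C with 5 μM Phome in 25 mM Hepes/0.01% albumin. Fluorescence of released 6-methoxy-2-naphthaldehyde was read before substrate and at end; IC50 from % inhibition.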
row,Compound,IC50
1,"COc1ccc(O[C@H]2CO[C@H]3[C@@H]2OC[C@@H]3NC(=O)NC2CCCCC2)cc1 [Example 18, 1-Cyclohexyl-3-[(3S,3aR,6S,6aS)-6-(4-methoxy-phenoxy)-hexahydro-furo[3,2-b]furan-3-yl]-urea]",1 nM
2,"Cc1nn(C(C)C)cc1NC(=O)N[C@H]1CO[C@H]2[C@@H]1OC[C@@H]2Oc1cccnc1C [Example 225, 1-(1-Isopropyl-3-methyl-1H-pyrazol-4-yl)-3-[(3S,3aR,6S,6aS)-6-(2-methyl-pyridin-3-yloxy)-hexahydro-furo[3,2-b]furan-3-yl]-urea]",43 nM
3,"Cc1ncccc1O[C@H]1CO[C@H]2[C@@H]1OC[C@@H]2NC(=O)NC1CCC(=O)N(C)C1 (stereo partly drawn) [Example 245, 1-(1-Methyl-6-oxo-piperidin-3-yl)-3-[(3S,3aR,6S,6aS)-6-(2-methyl-pyridin-3-yloxy)-hexahydro-furo[3,2-b]furan-3-yl]-urea]",825 nM
4,"O=C(NCCc1cccs1)N[C@H]1CO[C@@H]2[C@@H](CCc3ccccc3)CO[C@@H]21 [Example 370, 1-((3S,3aR,6S,6aR)-6-Phenethyl-hexahydro-furo[3,2-b]furan-3-yl)-3-(2-thiophen-2-yl-ethyl)-urea]",43 nM
5,"O=C(Nc1ccccc1)N[C@H]1CO[C@H]2[C@@H]1OC[C@@H]2/C=C\c1ccsc1 [Example 337, 1-Phenyl-3-[(3S,3aR,6S,6aR)-6-((Z)-2-thiophen-3-yl-vinyl)-hexahydro-furo[3,2-b]furan-3-yl]-urea]",423 nM
6,"O=C(NCCc1ccccc1)N[C@H]1CO[C@H]2[C@@H]1OC[C@@H]2/C=C\c1ccccc1 [Example 331, 1-Phenethyl-3-[(3S,3aR,6S,6aR)-6-((Z)-styryl)-hexahydro-furo[3,2-b]furan-3-yl]-urea]",18 nM
7,"Cc1ncccc1O[C@H]1CO[C@H]2[C@@H]1OC[C@@H]2NC(=O)NC1CCCCC1C(F)(F)F (stereo partly drawn) [Example 275, 1-[(3S,3aR,6S,6aS)-6-(2-Methyl-pyridin-3-yloxy)-hexahydro-furo[3,2-b]furan-3-yl]-3-(2-trifluoromethyl-cyclohexyl)-urea]",19 nM
8,"O=C(NC1CCCCC1)N[C@H]1CO[C@H]2[C@@H]1OC[C@@H]2Oc1cncc(Cl)c1 [Example 33, 1-[(3S,3aR,6S,6aS)-6-(5-Chloro-pyridin-3-yloxy)-hexahydro-furo[3,2-b]furan-3-yl]-3-cyclohexyl-urea]",3 nM
9,Cc1cc(C)cc(NC(=O)NC2COC3C(C#N)COC23)c1 (stereo not shown) [Example 381],108 nM
10,"Cc1ncccc1O[C@H]1CO[C@H]2[C@@H]1OC[C@@H]2NC(=O)NC(C)c1ccc(S(C)(=O)=O)cc1 (stereo partly drawn) [Example 187, 1-[1-(4-Methanesulfonyl-phenyl)-ethyl]-3-[(3S,3aR,6S,6aS)-6-(2-methyl-pyridin-3-yloxy)-hexahydro-furo[3,2-b]furan-3-yl]-urea]",44 nM
11,"COc1ccc([C@H](C)NC(=O)N[C@H]2CO[C@H]3[C@@H]2OC[C@@H]3Oc2ccc(F)cc2)cc1 [Example 167, 1-[(3S,3aR,6S,6aS)-6-(4-Fluoro-phenoxy)-hexahydro-furo[3,2-b]furan-3-yl]-3-[(S)-1-(4-methoxy-phenyl)-ethyl]-urea]",66 nM
12,"Cc1ncccc1O[C@H]1CO[C@H]2[C@@H]1OC[C@@H]2NC(=O)NC(C)CN1CCCC1=O (stereo partly drawn) [Example 244, 1-[1-Methyl-2-(2-oxo-pyrrolidin-1-yl)-ethyl]-3-[(3S,3aR,6S,6aS)-6-(2-methyl-pyridin-3-yloxy)-hexahydro-furo[3,2-b]furan-3-yl]-urea]",577 nM
13,"O=C(Nc1cccc(C(F)(F)F)c1)N[C@H]1CO[C@@H]2[C@@H](CCc3ccsc3)CO[C@@H]21 [Example 375, 1-[(3S,3aR,6S,6aR)-6-(2-Thiophen-3-yl-ethyl)-hexahydro-furo[3,2-b]furan-3-yl]-3-(3-trifluoromethyl-phenyl)-urea]",17 nM
14,"Cc1cccc(CNC(=O)N[C@H]2CO[C@H]3[C@@H]2OC[C@@H]3C#Cc2ccsc2)c1 [Example 305, 1-(3-Methyl-benzyl)-3-((3S,3aR,6S,6aR)-6-thiophen-3-ylethynyl-hexahydro-furo[3,2-b]furan-3-yl)-urea]",243 nM
15,"Cc1ncccc1O[C@H]1CO[C@H]2[C@@H]1OC[C@@H]2NC(=O)NCC1CCC(=O)N1C (stereo partly drawn) [Example 255, 1-(1-Methyl-5-oxo-pyrrolidin-2-ylmethyl)-3-[(3S,3aR,6S,6aS)-6-(2-methyl-pyridin-3-yloxy)-hexahydro-furo[3,2-b]furan-3-yl]-urea]",545 nM
16,"COc1cc(NC(=O)N[C@H]2CO[C@H]3[C@H](CCc4ccccc4)CO[C@@H]32)cc(OC)c1 [Example 352, 1-(3,5-Dimethoxy-phenyl)-3-[(3S,3aR,6R)-6-((S)-phenethyl)-hexa-hydro-furo[3,2-b]furan-3-yl]-urea]",149 nM
17,"C[C@H](NC(=O)N[C@H]1CO[C@H]2[C@@H]1OC[C@@H]2Oc1ccc(F)cc1)c1ccccc1 [Example 161, 1-[(3S,3aR,6S,6aS)-6-(4-Fluoro-phenoxy)-hexahydro-furo[3,2-b]furan-3-yl]-3-((S)-1-phenyl-ethyl)-urea]",47 nM
18,"Cc1cccc(CNC(=O)NC2COC3C(CCc4ccsc4)COC23)c1 [Example 365, 1-(3-Methyl-benzyl)-3-[(3S,3aR,6R)-6-((S)-2-thiophen-3-yl-ethyl)-hexa-hydro-furo[3,2-b]furan-3-yl]-urea]",145 nM
19,"COCCCNC(=O)NC1COC2C(Oc3cccnc3C)COC12 [Example 175, 1-(3-Methoxy-propyl)-3-[(3S,3aR,-6S,6aS)-6-(2-methyl-pyridin-3-yl-oxy)-hexahydro-furo[3,2-b]furan-3-yl]-urea]",975 nM
20,"O=C(NC1CCCCC1)N[C@H]1CO[C@H]2[C@@H]1OC[C@@H]2Oc1ccccc1Cl [Example 98, 1-[(3S,3aR,6S,6aS)-6-(2-Chloro-phenoxy)-hexahydro-furo[3,2-b]furan-3-yl]-3-cyclohexyl-urea]",2 nM
21,"O=C(N[C@H]1CO[C@H]2[C@@H]1OC[C@@H]2Oc1ccc(F)cc1)N[C@@H]1CCCC[C@H]1OCc1ccccc1 [Example 164, 1-((1R,2R)-2-Benzyloxy-cyclohexyl)-3-[(3S,3aR,6S,6aS)-6-(4-fluoro-phenoxy)-hexahydro-furo[3,2-b]furan-3-yl]-urea]",487 nM
22,"O=C(NC1CCCCC1)N[C@H]1CO[C@H]2[C@@H]1OC[C@@H]2SC1CCS(=O)(=O)C1 (stereo partly drawn) [Example 25, 1-Cyclohexyl-3-[(3S,3aR,6S,6aS)-6-(1,1-dioxo-tetrahydro-1λ6-thiophen-3-ylsulfanyl)-hexahydro-furo[3,2-b]furan-3-yl]-urea]",8 nM
23,"O=C(NC1CCCCC1)N[C@H]1CO[C@H]2[C@@H]1OC[C@@H]2Oc1cncc(F)c1 [Example 35, 1-Cyclohexyl-3-[(3S,3aR,6S,6aS)-6-(5-fluoro-pyridin-3-yloxy)-hexahydro-furo[3,2-b]furan-3-yl]-urea]",12 nM
24,"Cc1cc(C)cc(NC(=O)N[C@H]2CO[C@H]3[C@@H]2OC[C@@H]3C#Cc2ccsc2)c1 [Example 302, 1-(3,5-Dimethyl-phenyl)-3-((3S,3aR,6S,6aR)-6-thiophen-3-ylethynyl-hexahydro-furo[3,2-b]furan-3-yl)-urea]",72 nM
25,"O=C(NC1CCCCC1)N[C@H]1CO[C@H]2[C@@H]1OC[C@@H]2Oc1cc(Cl)cc(Cl)c1 [Example 31, 1-Cyclohexyl-3-[(3S,3aR,6S,6aS)-6-(3,5-dichloro-phenoxy)-hexahydro-furo[3,2-b]furan-3-yl]-urea]",3 nM
